In patent publication US20150065494A1, “AMINOSTYRYLBENZOFURAN DERIVATIVES AS INHIBITORS AGAINST BETA-AMYLOID FIBRIL FORMATION, AND PHARMACEUTICAL COMPOSITION COMPRISING SAME” (KOREA INSTITUTE OF SCIENCE AND TECHNOLOGY, priority 2012, published 2015):
Counter-ions that a name gives are not always drawn.

Columns and labels:
beta-amyloid 42 (Aβ42) = target: T1, beta-amyloid 42 (Aβ42) (Homo sapiens, UniProt P05067); experiment: Inhibitory effect on the formation of beta-amyloid fibrils in vitro (ThT fluorescence assay); format: biochemical; conditions: for inhibition at 10 µM / % Inhibition (10 μM): 10 μM compound, 25 μM Aβ42, ThT fluorescence; for Aβ42 % inhibition compared with comparative compound curcumin: 10 μM
T1 construct: Beta-amyloid 42 (Aβ42) was dissolved in dimethylsulfoxide (DMSO) to form a 250 mM Aβ42 stock solution
Description: Beta-amyloid 42 (Aβ42) was dissolved in dimethylsulfoxide (DMSO) to form a […] Aβ42 stock solution. In addition, ThT (thioflavin T) was dissolved in distilled water to obtain a concentration of 1 mM and subsequently diluted with 50 mM glycin buffer (pH 8.5) to yield a 5 μM ThT stock solution. 45 μL of PBS (phosphate buffer saline, pH 7.4) was added to each of a 96-well fluorescence microplate (white, F-bottom). 5 μL of the 250 μM Aβ42 stock solution was added to each well. The final concentration of each compound obtained in Examples was in a range of 10 to 0.001 μM by adding 2 μL of a solution, which was prepared by dissolving the subject compounds obtained in Examples in DMSO, to each well. At this time, the final concentration of Aβ42 in each well was 25 μM. The plate was then incubated for 1 hr at room temperature, and 150 μL of the 5 μM ThT stock solution was added to each well.
The fluorescence intensity of each well was determined with the multi-label fluorescence counter (LS-55 Luminescence spectrometer: Perkin Elmer) at an excitation wavelength of 450 nm (excitation slit width: 10 nm) and an emission wavelength of 482 nm (emission slit width: 10 nm), while adjusting counting time to 1 second. The control group was prepared by adding PBS solution, Aβ42 and DMSO, without adding the inventive compound prepared above. A percent inhibition on the formation of beta-amyloid fibrils was calculated in accordance with the following equation, and IC50 was calculated by using GraphPad Prism version 4.03 Program.
% Inhibition=[1−(C−D)/(A−B)]×100
A (control group)=fluorescence intensity in a group treated with PBS solution, Aβ42 and DMSO
B (blank)=fluorescence intensity in a group treated with PBS solution and DMSO
C (experimental group)=fluorescence intensity in a group treated with PBS solution, Aβ42, the inventive compound and DMSO
D (compensation value to the experimental group) =fluorescence intensity in a group treated with PBS solution, the inventive compound and DMSO

[1] = Passage test through the blood-brain barrier (brain tissue concentration); format: in vivo, ICR mice and SD rats; conditions: brain; read-out: passage ability compared with plasma (blood-brain barrier)
Description: Three 7 week-old ICR mice (weight: approximately 30 g) and three 8 week-old SD rats (weight: approximately 250 g) were used per test group. A solution prepared by dissolving a hydrochloride salt of the compound of Example 3 in excipient (DMSO/Tween 20/saline: 0.1/0.6/2.3, v/v/v) was administered to each experimental animal. The test compound was intravenously administered in an amount of 5 mL per kg of body weight through the fine vein or orally administered in an amount of 10 mL per kg of body weight.
At 0.5, 1, 2, 4, 10 and 24 hrs after the administration of the test compound, the mice and rats were subjected to insufflations narcosis using isoflorane, followed by cutting the abdomen open. Subsequently, 1 mL of blood was collected from abdominal veins into the tube containing heparin (1000 IU/mL, 3 μL). The obtained blood samples were centrifuged for 2 min at 12,000 rpm to obtain plasma. The obtained plasmas were kept in a freezer at −80° C. until the analysis.
The mice and rats from which the blood samples were obtained were subjected to bloodletting, and then, the brain tissues of the mice and rats was collected. The brain tissue thus obtained was washed with physiological saline 1 or 2 times to remove blood. The weight of the brain tissue was measured after the removal of adipose tissue and peripheral tissue. 4% bovine serum albumin (BSA) solution diluted with 10-fold was added to the brain tissue. The resulting solution was subjected to homogenization using a homogenizer. The diluted homogenate thus obtained was placed in 2 mL tube and was kept in a freezer at −80° C. until the analysis. All of the treatments to the sample were performed in ice.
(§1) 50 μL of plasma was placed in a 2.0 mL tube with a cap (Eppendorf Co.). An internal standard solution and 1 mL of ethyl acetate as an extract solvent were added to the resulting solution. The resulting solution was mixed by using thermomixer (Eppendorf Co.) for 5 min at 1400 rpm, and then subjected to centrifugation (Eppendorf Co.). The supernatant was collected and concentrated at 35° C. by using a cyclone. The residue was re-dissolved in 50 μL of mobile phase and 5 μL of the resulting solution was injected into LC/MS and analyzed.
In Table 3, “iv” refers to intravenous injection; “po” refers to per oral; “AUC plasma” refers to an area under the plasma level-time curve; “Cmax” refers to a maximum plasma concentration; “Tmax” refers to a time to reach Cmax; “BA” refers to bioavailability (%) according to Equation 2 below; “AUC Brain” refers to an area under the brain tissue level-time curve; and “AUCBrain/AUCPlasma” refers to a passage rate of the test compound to the brain.

[2] = Pharmacokinetics test in mice (dose-dependent); format: in vivo, ICR mice; conditions: for AUC ratio / Cmax ratio / AUC / Cmax / Tmax / half-life: po; for AUC / Cmax / Tmax / half-life: ICR, mouse, plasma
Description: Two 6 week-old ICR mice (weight: approximately 25 g) were used per test group. A solution prepared by dissolving the compound of Example 3 in distilled water was administered to each experimental animal. The test compound was orally administered in an amount of 10 mL per kg of body weight.
At 0.5, 1, 2, 4, 10 and 24 hrs after the oral administration of the test compound, the blood was collected from jugular veins into a tube containing heparin (1,000 IU/mL, 3 μL). The obtained plasmas were centrifuged (12,000 rpm, 2 min, Eppendorf), and contained in a freezer at −80° C. until analysis.
as §1, with “cap (Eppendorf Co.) and acidified by adding 20 μL of 0.1% formic acid thereto. An internal” for “cap (Eppendorf Co.). An internal”
In Table 4, “po” refers to per oral; “AUC plasma” refers to an area under the plasma level-time curve; “Cmax” refers to a maximum plasma concentration; and “Tmax” refers to a time to reach Cmax.

T1 sequence (P05067 672-713 limits assumed): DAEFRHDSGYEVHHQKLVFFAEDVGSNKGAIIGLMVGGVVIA

## COc1cc(/C=C/C(=O)CC(=O)/C=C/c2ccc(O)c(OC)c2)ccc1O [Curcumin, curcumin, reference compound]
beta-amyloid 42 (Aβ42)
  inhibition at 10 µM: ≥ 70%

## CN(C)CCCOc1ccc2cc(/C=C/c3ccc(N(C)C)cc3)oc2c1 [Example 3, (E)-6-(3-dimethylaminopropoxy)-2-(4-dimethylaminostyryl)benzofuran]
[1]
  Kp: ≥ 1
[2]; 10 mg/kg, relative to AUC at 10 mg/kg
  AUC ratio: 1.0
[2]; 10 mg/kg, relative to AUC at 10 mg/kg, listed as Compound of Example 3, 10 mg/kg
  AUC ratio: 1
[2]; 10 mg/kg, relative to Cmax at 10 mg/kg
  Cmax ratio: 1
[2]; 30 mg/kg, AUC (30 mg/kg)/AUC (10 mg/kg)
  AUC ratio: 4.2
[2]; 30 mg/kg, Cmax (30 mg/kg)/Cmax (10 mg/kg)
  Cmax ratio: 4.7
[2]; 100 mg/kg, AUC (100 mg/kg)/AUC (10 mg/kg)
  AUC ratio: 10.4
[2]; 100 mg/kg, Cmax (100 mg/kg)/Cmax (10 mg/kg)
  Cmax ratio: 9.4
[2]; 10 mg/kg
  AUC: 443 ng·h/mL
  Cmax: 40.4 ng/mL
  Tmax: 0.5 h
  half-life: 4.9 h
[2]; 30 mg/kg
  AUC: 1890 ng·h/mL
  Cmax: 188 ng/mL
  Tmax: 2 h
  half-life: 5.4 h
[2]; 100 mg/kg
  AUC: 4580 ng·h/mL
  Cmax: 378 ng/mL
  Tmax: 4 h
  half-life: 23.5 h
[2]; oral 10, 30 and 100 mg/kg
  dose-dependence of pharmacokinetics (linearity): linear pharmacokinetics

## CN(C)c1ccc(/C=C/c2cc3ccc(OCCCN4CCCCC4)cc3o2)cc1 [Example 11, (E)-6-(3-(1-piperidinyl)propoxy)-2-(4-dimethylaminostyryl)benzofuran]
beta-amyloid 42 (Aβ42)
  inhibition at 10 µM: < 50%

## CN(C)c1ccc(/C=C/c2cc3ccc(OCCCc4ccncc4)cc3o2)cc1 [Example 17, (E)-6-(3-(4-pyridinyl)propoxy)-2-(4-dimethylaminostyryl)benzofuran]
beta-amyloid 42 (Aβ42)
  inhibition at 10 µM: < 50%

## COc1ccc2cc(/C=C/c3ccc(N(C)CCF)cc3)oc2c1 [Example 20, (E)-6-(methoxy)-2-(4,4′-methyl(2-fluoroethyl)aminostyryl)benzofuran]
beta-amyloid 42 (Aβ42)
  Aβ42 % inhibition compared with comparative compound curcumin: equal to or greater than that of the comparative compound, curcumin
  inhibition at 10 µM: ≥ 70%

## CN(C)c1ccc(/C=C/c2cc3ccc(OCCN4CCOC4)cc3o2)cc1 [Example 21, (E)-6-(2-(3-oxazolidinyl)ethoxy)-2-(4-dimethylaminostyryl)benzofuran hydrochloride]
beta-amyloid 42 (Aβ42)
  inhibition at 10 µM: 50 to 70%

## CCN(CC)CCCOc1ccc2cc(/C=C/c3ccc(N(C)C)cc3)oc2c1 [Example 24, (E)-6-(3-diethylaminopropoxy)-2-(4-dimethylaminostyryl)benzofuran hydrochloride]
beta-amyloid 42 (Aβ42)
  inhibition at 10 µM: 50 to 70%

## CN(C)c1ccc(/C=C/c2cc3ccc(OCCCN4CCOCC4)cc3o2)cc1.Cl [Example 25, (E)-6-(3-(4-morpholinopropoxy))-2-(4-dimethylaminostyryl)benzofuran hydrochloride]
beta-amyloid 42 (Aβ42)
  Aβ42 % inhibition compared with comparative compound curcumin: equal to or greater than that of the comparative compound, curcumin
  % Inhibition (10 μM): *** (*** (70%≦))

## CN(C)c1ccc(/C=C/c2cc3ccc(OCCN4CCOCC4)cc3o2)cc1.Cl [Example 27, (E)-6-(2-(4-morpholinoethoxy))-2-(4-dimethylaminostyryl)benzofuran hydrochloride]
beta-amyloid 42 (Aβ42)
  % Inhibition (10 μM): ** (** (50% ≦ × < 70%))

## C[C@@H]1CN(CCCOc2ccc3cc(/C=C/c4ccc(N(C)C)cc4)oc3c2)C[C@H](C)O1 [Example 28, (E)-6-(3-((2S,6R)-2,6-dimethylmorpholino)propoxy)-2-(4-dimethylaminostyryl)benzofuran hydrochloride]
beta-amyloid 42 (Aβ42)
  inhibition at 10 µM: < 50%

## CN(C)c1ccc(/C=C/c2cc3ccc(OCCN4CCCCC4)cc3o2)cc1.Cl [Example 29]
beta-amyloid 42 (Aβ42)
  % Inhibition (10 μM): * (* (<50%))

## CN(C)c1ccc(/C=C/c2cc3ccc(OCC4CCCCN4C)cc3o2)cc1 (stereo not shown) [Example 31, (E)-6-(1-methyl-2-piperidinylmethoxy)-2-(4-dimethylaminostyryl)benzofuran hydrochloride]
beta-amyloid 42 (Aβ42)
  inhibition at 10 µM: < 50%

## CN1CCCC(COc2ccc3cc(/C=C/c4ccc(N(C)C)cc4)oc3c2)C1 (stereo not shown) [Example 32, (E)-6-(1-methyl-3-piperidinylmethoxy)-2-(4-dimethylaminostyryl)benzofuran hydrochloride]
beta-amyloid 42 (Aβ42)
  inhibition at 10 µM: < 50%

## CN1CCN(CCCOc2ccc3cc(/C=C/c4ccc(N(C)C)cc4)oc3c2)CC1 [Example 33, (E)-6-(3-(4-methyl-1-piperazinyl)propoxy)-2-(4-dimethylaminostyryl)benzofuran hydrochloride]
beta-amyloid 42 (Aβ42)
  inhibition at 10 µM: < 50%

## CN(C)c1ccc(/C=C/c2cc3ccc(OCCCN4CCSCC4)cc3o2)cc1.Cl [Example 34, (E)-6-(3-(4-thiomorpholinopropoxy))-2-(4-dimethylaminostyryl)benzofuran hydrochloride]
beta-amyloid 42 (Aβ42)
  % Inhibition (10 μM): * (* (<50%))

## CN(C)c1ccc(/C=C/c2cc3ccc(OCCCN4CCS(=O)(=O)CC4)cc3o2)cc1.Cl [Example 35, (E)-6-(3-(thiomorpholine-1,1-dioxide)propoxy)-2-(4-dimethylaminostyryl)benzofuran hydrochloride]
beta-amyloid 42 (Aβ42)
  % Inhibition (10 μM): * (* (<50%))

## CN(C)c1ccc(/C=C/c2cc3ccc(OCCCc4ccccn4)cc3o2)cc1 [Example 37, (E)-6-(3-(2-pyridinyl)propoxy)-2-(4-dimethylaminostyryl)benzofuran hydrochloride]
beta-amyloid 42 (Aβ42)
  inhibition at 10 µM: < 50%

## CN(C)c1ccc(/C=C/c2cc3ccc(OCCCc4cccnc4)cc3o2)cc1 [Example 38, (E)-6-(3-(3-pyridinyl)propoxy)-2-(4-dimethylaminostyryl)benzofuran hydrochloride]
beta-amyloid 42 (Aβ42)
  inhibition at 10 µM: < 50%
